Experimental data from patent US7332615B2, “Hydrophilic analogs of 4,8-dihydrobenzodithiophene-4,8-diones as anticancer agents” (Industrial Technology Research Institute, priority 2004, dated 2008).
Counter-ions that a name gives are not always drawn. Like-named read-outs stand apart in the source and are kept apart here.

Tests used:
Water solubility = format: physicochemical; settings: in H2O; for solubility: water
lung carcinoma (A-549) = assay: Cytotoxicity Assays Method C, A-549; format: cell-based; settings: read-out: IC50 A549
[1] = system: epidermoid carcinoma of the nasopharynx (KB); assay: Cytotoxicity Assays Method C, KB; format: cell-based; settings: read-out: IC50 KB
[2] = system: p-gp-expressing epidermoid carcinoma of the nasopharynx (KB-VIN); assay: Cytotoxicity Assays Method C, KB-VIN; format: cell-based; settings: for IC50: 50% reduction in cell number after 72 hr of incubation
Description: Cytotoxicity Assays Method C (KB, KB-VIN, AS49, HCT-8, PC-3) [K. H. Lee et. al. Planta Med. 54, 308-312 (1998), Monk A et. al. J. Natl. Cancer Inst. 83, 757-766 (1991).] The cell lines included epidermoid caninoma of the nasopharynx (KB), p-gp-expressing epidermoid caninoma of the nasopharynx (KB-VIN), lung carcinoma (A-549), ileocecal carinoma (HCT-8) and prostate cancer (PC-3) cell lines.

prostate cancer (PC-3) = assay: Cytotoxicity Assays Method C, PC-3; format: cell-based; settings: for IC50: read-out: IC50 PC-3
[3] = system: ileocecal carcinoma (HCT-8); assay: Cytotoxicity Assays Method C, HCT-8; format: cell-based; settings: read-out: IC50 HCT-8
[4] = system: Human promyeloid leukemia HL-60 cells; assay: Cytotoxicity Assays Method B (MTT proliferation assay), HL-60; format: cell-based; settings: Homo sapiens, read-out: IC50 (concentration at which 50% of the cells are inhibited from growing)
Method: Cytotoxicity Assays Method B (HL-60) [H. M. Chen et al. Chin. Pharm. J. 53, 157-167 (2001)]
Human promyeloid leukemia HL-60 cells were obtained from the American Type
Culture Collection (Manassas, Va., USA) and the Culture Collection and Research Center(CCRC) (Tai wan, ROC). Human promyeloid leukemia HL-60 cells were cultured in suspension in RPMI-1640 medium (GIBCO, Grand Is land, USA), containing 10% fetal bovine se rum (GIBCO, Grand Is land, USA), 100 unit/mL penicillin, […] streptomycin and 1% L-glutamine at 37° C. in a humidified atmosphere of 5% CO2 in air. Cells were split every day to maintain the cell numbers between 2−5×10^5/mL. Cell numbers were assessed by the standard procedure of leukocyte counting using a hemocytometer and cell viability was checked by the ability of cells to exclude Trypan blue.
Cellular proliferation was determined by the MTT [3-(4,5-dimethylthiazol-2-yl)-2,5-diphenyltetrazolium bromide] as say. Briefly, […] of MTT (5 mg/mL) was added to each well of 96-well plates containing 1×10^5 cells after treatment with different concentrations of samples for 4 days. The reaction was stopped after 2 h by adding […] of 0.04 N HCl in isopropanol and the OD570 nm was determined by a minicolorimetric reader. Each concentration treatment was performed in triplicate.

[5] = A549, 50% reduction in cell number after 72 hr of incubation
[6] = KB, 50% reduction in cell number after 72 hr of incubation
[7] = 72 h, PC-3, 50% reduction in cell number after 72 hr of incubation
[8] = Homo sapiens, A549, 72 h, A549, 50% reduction in cell number after 72 hr of incubation
[9] = 72 h, KB, 50% reduction in cell number after 72 hr of incubation
[10] = Homo sapiens, HCT-8, 72 h, HCT-8, 50% reduction in cell number after 72 hr of incubation
[11] = PC-3, 50% reduction in cell number after 72 hr of incubation
[12] = HCT-8, 50% reduction in cell number after 72 hr of incubation

solubility (Water solubility) [µg/mL] | Structure (SMILES) | IC50 (lung carcinoma (A-549); [5]) [nM] | IC50 [2] [nM] | IC50 (prostate cancer (PC-3); [7]) [nM] | IC50 (lung carcinoma (A-549); [8]) [nM] | IC50 [1, 9] [nM] | IC50 [3, 10] [nM] | also measured
 | CC(O)c1cc2c(s1)C(=O)c1sccc1C2=O (stereo not drawn) [Compound 1b, reference compound] |  |  |  |  |  |  | Solubility (water solubility) (Water solubility): 9.6 × 10^−3 mg/1 mL H2O
 | COc1cccc2c1C(=O)c1c(O)c3c(c(O)c1C2=O)C[C@@](O)(C(=O)CO)C[C@@H]3O[C@H]1C[C@H](N)[C@H](O)[C@H](C)O1 [Doxorubincin, reference compound] | 180 | 4970 |  |  |  |  | IC50 [1, 6]: 180 nM
 | CC(OC(=O)CCCC(=O)O)c1cc2c(s1)C(=O)c1sccc1C2=O (stereo not drawn) [IIb-2, Mono-[1-(4,8-dioxo-4,8-dihydrobenzo[1,2-b:5,4-b′]dithiophen-2-yl)-ethyl]pentanedioate] |  | 50 |  |  |  |  | IC50 ([4]; HL-60, 96 h): 250 nM; IC50 (prostate cancer (PC-3); 72 h): 60 nM; activity against the androgen-insensitive prostate cancer cell line PC-3 (in words) (prostate cancer (PC-3); PC-3, summary of Table 3): potent activity; IC50 (lung carcinoma (A-549); Homo sapiens, A549, 72 h): 110 nM; IC50 ([1]; 72 h): 30 nM; activity against the MDR cell line KB-VIN (in words) ([2]; summary of Table 3): potent activity; IC50 ([3]; Homo sapiens, HCT-8, 72 h): 190 nM
 | O=C(O)COCc1cc2c(s1)C(=O)c1sccc1C2=O [IVa, 4,8-dioxo-4,8-dihydroxybenzo[1,2-b:5,4-b′]-dithiophen-2-yl-methoxy acetic acid] |  |  | 1050 | 2460 | 3610 | 2070 | IC50 ([2]; Homo sapiens, KBVIN, 72 h): 2460 nM
≥ 9600 | O=C([O-])COCc1cc2c(s1)C(=O)c1sccc1C2=O.[Na+] [IVa-Na, Sodium 4,8-dioxo-4,8-dihydroxybenzo[1,2-b:5,4-b′]-dithiophen-2-yl-methoxy acetate] |  |  |  |  |  |  | 
≥ 3200 | CC(OCC(=O)[O-])c1cc2c(s1)C(=O)c1sccc1C2=O.[Na+] (stereo not drawn) [IVb-Na, Sodium 1-(4,8-dioxo-4,8-dihydroxybenzo[1,2-b:5,4b′]-dithiophen-2-yl-ethoxy)-acetate] |  |  |  |  |  |  | 
≥ 6000 | CC(OCC(=O)[O-])c1cc2c(s1)C(=O)c1ccsc1C2=O.[Na+] (stereo not drawn) [IX-Na, Sodium 1-(4,8-dioxo-4,8-dihydroxybenzo[1,2-b:4,5-b′]-dithiophen-2-yl-ethoxy)-acetate] | 260 | 1000 |  |  |  |  | IC50 (prostate cancer (PC-3); [11]): 140 nM; IC50 [1, 6]: 1110 nM; IC50 [3, 12]: 220 nM
 | CC[C@]1(O)C[C@H]2CN(CCc3c([nH]c4ccccc34)[C@@](C(=O)OC)(c3cc4c(cc3OC)N(C=O)[C@H]3[C@@](O)(C(=O)OC)[C@H](OC(C)=O)[C@]5(CC)C=CCN6CC[C@]43[C@@H]65)C2)C1 [VCR, reference compound] | 40 | 5330 |  |  |  |  | IC50 [1, 6]: 10 nM
 | COc1cc([C@@H]2c3cc4c(cc3[C@@H](O[C@@H]3O[C@@H]5CO[C@@H](C)O[C@H]5[C@H](O)[C@H]3O)[C@H]3COC(=O)[C@H]23)OCO4)cc(OC)c1O [VP-16, reference compound] | 1360 | > 10000 |  |  |  |  | IC50 [1, 6]: 4760 nM
 | O=C(O)c1cc2c(s1)C(=O)c1sccc1C2=O [XI, 4,8-dioxo-4,8-dihydrobenzo-[1,2-b;5,4-b′]dithiophene-2-carboxylic acid] | 30300 |  |  |  | 38300 | 37200 | IC50 (prostate cancer (PC-3); [11]): 13400 nM; IC50 ([2]; Homo sapiens, KBVIN, 72 h): 38300 nM
≥ 10000 | O=C(O)c1cc2c(s1)C(=O)c1sccc1C2=O [XI-NH4, Ammonium 4,8-dioxo-4,8-dihydrobenzo-[1,2-b:5,4-b′]dithiophene-2-carboxylate] | > 70000 | 36000 |  |  |  |  | IC50 (prostate cancer (PC-3); [11]): > 70000 nM; IC50 [1, 6]: 36000 nM; IC50 [3, 12]: > 70000 nM
≥ 10000 | O=C([O][Na+])c1cc2c(s1)C(=O)c1sccc1C2=O [XI-Na, Sodium 4,8-dioxo-4,8-dihydrobenzo-[1,2-b:5,4-b′]dithiophene-2 carboxylate] |  |  |  |  |  |  | 
≥ 6600 | C[C@H](NC(=O)c1cc2c(s1)C(=O)c1sccc1C2=O)C(=O)[O-].[Na+] [XIII-Na, Sodium (L)-2-{(4,8-dioxo-4,8-dihydrobenzo-[1,2-b;5,4-b′]dithiophene-2-carbonyl)-amino}-propionate] |  |  |  |  |  |  | 
 | O=C(O)c1cc2c(s1)C(=O)c1ccsc1C2=O [XIV, 4,8-dioxo-4,8-dihydrobenzo-[1,2-b;4,5-b′]dithiophene-2-carboxylic acid] | 44400 |  | 25300 |  | 38300 | 44100 | IC50 ([2]; Homo sapiens, KBVIN, 72 h): 38300 nM
4000 | O=C(O)c1cc2c(s1)C(=O)c1ccsc1C2=O [XIV-NH4, Ammonium 4,8-dioxo-4,8-dihydrobenzo-[1,2-b;4,5-b′]dithiophene-2-carboxylate] | 16200 | 36000 |  |  |  |  | IC50 (prostate cancer (PC-3); [11]): 13300 nM; IC50 [1, 6]: 36000 nM; IC50 [3, 12]: 26300 nM
 | C[C@H](NC(=O)c1cc2c(s1)C(=O)c1ccsc1C2=O)C(=O)O [XVI, (L)-2-{(4,8-Dioxo-4,8-dihydrobenzo-[1,2-b;4,5-b′]dithiophene-2-carbonyl)-amino}-propionic acid] |  |  |  |  |  |  | IC50 ([4]; 96 h, HL-60, MTT, treatment for 4 days): 750 nM
≥ 3200 | C[C@H](NC(=O)c1cc2c(s1)C(=O)c1ccsc1C2=O)C(=O)[O-].[Na+] [XVI-Na] |  |  | 170 | 540 | 1760 | 510 | IC50 ([2]; Homo sapiens, KBVIN, 72 h): 540 nM
≥ 2000 | CN(C)CCNC(=O)c1cc2c(s1)C(=O)c1sccc1C2=O [XVII-H3PO4, 4,8dioxo-4,8-dihydrobenzo[1,2-b;5,4-b′]dithiophene-2-carboxylate-(2-dimethyl-aminoethyl)-amide phosphoric acid salt] |  |  |  |  |  |  | 

Structure (SMILES) | solubility (Water solubility) [µg/mL] | IC50 (lung carcinoma (A-549); [5]) [nM] | IC50 [2] [nM] | IC50 (prostate cancer (PC-3); [7]) [nM] | IC50 (lung carcinoma (A-549); [8]) [nM] | IC50 [1, 9] [nM] | IC50 [3, 10] [nM] | also measured
O=C([O-])CCC(=O)OCc1cc2c(s1)C(=O)c1sccc1C2=O.[Na+] [IIa-1-Na, Sodium mono-[1-(4,8-dioxo-4,8-dihydrobenzo[1,2-b:5,4-b′]dithiophen-2-yl)-methyl]succinate] | ≥ 10000 |  | 3790 | 1220 | 3790 | 2090 | 3250 | 
O=C([O-])CCCC(=O)OCc1cc2c(s1)C(=O)c1sccc1C2=O.[Na+] [IIa-2-Na, Sodium mono-[1-(4,8-dioxo-4,8-dihydrobenzo[1,2-b:5,4-b′]dithiophen-2-yl)methyl]pentanedioate] | ≥ 1800 |  | 1310 | 890 | 940 | 1720 | 650 | 
CC(OC(=O)CCC(=O)[O-])c1cc2c(s1)C(=O)c1sccc1C2=O.[Na+] (stereo not drawn) [IIb-1-Na, Sodium mono-[1-(4,8-dioxo-4,8-dihydroxybenzo-[1,2-b;5,4-b′]dithiophen-2-yl)-ethyl]succinate] | ≥ 3000 |  | 470 | 370 | 470 | 550 | 1830 | 
CC(OC(=O)CCCC(=O)[O-])c1cc2c(s1)C(=O)c1sccc1C2=O.[Na+] (stereo not drawn) [IIb-2-Na, Sodium mono-[1-(4,8-dioxo-4,8-dihydroxybenzo[1,2-b;5,4-b′]dithiophen-2-yl)-ethyl]pentanedioate] | ≥ 9600 |  | 1130 | 880 | 1890 | 1360 | 1890 | 
CC(OC(=O)CCC(=O)[O-])c1cc2c(s1)C(=O)c1ccsc1C2=O.[Na+] (stereo not drawn) [VII-1-Na, Sodium mono-[1-(4,8-dioxo-4,8-dihydroxybenzo-[1,2-b;4,5-b′]dithiophen-2-yl)-ethyl]succinate] | ≥ 10000 |  | 1960 | 730 | 2220 | 2140 | 1440 | 
CC(OC(=O)CCCC(=O)[O-])c1cc2c(s1)C(=O)c1ccsc1C2=O.[Na+] (stereo not drawn) [VII-2-Na, Sodium mono-[1-(4,8-dioxo-4,8-dihydroxybenzo[1,2-b;4,5-b′]dithiophen-2-yl)-ethyl]pentanedioate] | ≥ 3400 |  | 680 | 100 | 2520 | 450 | 880 | 
